Results on 20 molecules are retold here after patent US20200055839A1 (priority 2017, published 2020).

For this assay, the system named is NL-RLuc virus. Description: Inhibition of HIV replication (NL-RLuc virus, luciferase readout in MT-2 cells). Particulars: Human immunodeficiency virus 1, MT2, 120 h, MT-2 cells infected with NL-RLuc virus, 5 days of incubation, 10% FBS, at least 2 experiments. It counts as cell-based. In outline: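 EC50 derived via median effect equation from at least 2 experiments, using luciferase expression as virus-growth readout. Replication-competent NL-RLuc reporter virus (nef partly replaced by Renilla luciferase) infected MT-2 cells with serial compound dilutions; 5-day incubation in RPMI 1640 plus 10% FBS.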

pEC50: −log10 of the molar value.

As to `CNc1nc(C)c([C@H](OC(C)(C)C)C(=O)O)c(N2CCC(C)(C)CC2)c1-c1ccc(OCCc2ccc(F)cc2)c(F)c1` [Example 108, (S)-2-(tert-Butoxy)-2-(4-(4,4-dimethylpiperidin-1-yl)-5-(3-fluoro-4-(4-fluorophenethoxy)phenyl)-2-methyl-6-(methylamino)pyridin-3-yl)acetic acid], the negative logarithm of the EC50 (pEC50) (in general, the negative decadic logarithm of the EC50, by convention in mol/L) was 8.52.

Molecule `Cc1ncc(-c2ccc(OCCc3ccc(F)cc3)c(C#N)c2)c(N2CCC(C)(C)CC2)c1[C@H](OC(C)(C)C)C(=O)O` [Example 256, (S)-2-(tert-Butoxy)-2-(5-(3-cyano-4-(4-fluorophenethoxy)phenyl)-4-(4,4-dimethylpiperidin-1-yl)-2-methylpyridin-3-yl)acetic acid] gave a negative logarithm of the EC50 (pEC50) of 9.10.

Take `CCCCC(F)(F)c1ccc(-c2cnc(C)c([C@H](OC(C)(C)C)C(=O)O)c2N2CCC(C)(C)CC2)nc1` [Example 276, (S)-2-(tert-Butoxy)-2-(5-(1,1-difluoropentyl)-4′-(4,4-dimethylpiperidin-1-yl)-6′-methyl-[2, 3′-bipyridin]-5′-yl)acetic acid]: the pEC50 is 7.85.

In turn, `CCOc1ccc(-c2cnc(C)c([C@H](OC(C)(C)C)C(=O)O)c2N2CCC(C)(C)CC2)cn1` [Example 112, (S)-2-(tert-Butoxy)-2-(4-(4,4-dimethylpiperidin-1-yl)-6′-ethoxy-6-methyl-[3, 3′-bipyridin]-5-yl)acetic acid] gave a pEC50 of 8.30.

`Cc1nc(CN2CCC3(CCC3)CC2)c(-c2ccccc2)c(N2CCC(C)(C)CC2)c1[C@H](OC(C)(C)C)C(=O)O` [Example 190, (2S)-2-[6-({7-Azaspiro[3.5]nonan-7-yl}methyl)-4-(4,4-dimethylpiperidin-1-yl)-2-methyl-5-phenylpyridin-3-yl]-2-(tert-butoxy)acetic acid] had a pEC50 of 8.52.

Molecule `Cc1ncc(-c2ccc(COc3ccccc3)cn2)c(N2CCC(C)(C)CC2)c1[C@H](OC(C)(C)C)C(=O)O` [Example 272, (S)-2-(tert-Butoxy)-2-(4′-(4,4-dimethylpiperidin-1-yl)-6′-methyl-5-(phenoxymethyl)-[2, 3′-bipyridin]-5′-yl)acetic acid] had a pEC50 of 8.70. The pEC50 values of the last two molecules are within 0.2 log units of each other.

As for `CCCCOc1ccc(-c2cnc(C)c([C@H](OC(C)(C)C)C(=O)O)c2N2CCC(C)(C)CC2)cn1` [Example 426, (S)-2-tert-Butoxy-2-(6′-butoxy-4-(4,4-dimethylpiperidin-1-yl)-6-methyl-3, 3′-bipyridin-5-yl)acetic acid], the pEC50 was 9.52. Against the preceding molecule, the pEC50 is 0.82 log units higher.

Take `Cc1ncc(-c2ncc(OCCc3ccc(F)cc3)cc2F)c(N2CCC(C)(C)CC2)c1[C@H](OC(C)(C)C)C(=O)O` [Example 233, (S)-2-(tert-Butoxy)-2-(4′-(4,4-dimethylpiperidin-1-yl)-3-fluoro-5-(4-fluorophenethoxy)-6′-methyl-[2, 3′-bipyridin]-5′-yl)acetic acid]: the pEC50 is 8.70.

`Cc1ncc(-c2ccc(OCc3ccccc3Cl)cn2)c(N2CCC(C)(C)CC2)c1[C@H](OC(C)(C)C)C(=O)O` [Example 336, (2S)-2-(tert-butoxy)-2-{5-[(2-chlorophenyl)methoxy]-4′-(4,4-dimethylpiperidin-1-yl)-6′-methyl-[2,3′-bipyridine]-5′-yl}acetic acid]: the pEC50 was 8.70.

Take `Cc1ncc(-c2ccc(OCCC(C)C)cc2)c(N2CCC(C)(C)CC2)c1[C@H](OC(C)(C)C)C(=O)O` [Example 361, (2S)-2-(tert-butoxy)-2-[4-(4,4-dimethylpiperidin-1-yl)-2-methyl-5-[4-(3-methylbutoxy)phenyl]pyridin-3-yl]acetic acid]: the pEC50 is 8.40.

In turn, `Cc1ncc(-c2cnc(OCC(C)(C)c3ccccc3)c(F)c2)c(N2CCC(C)(C)CC2)c1[C@H](OC(C)(C)C)C(=O)O` [Example 402, (2S)-2-(tert-butoxy)-2-[4-(4,4-dimethylpiperidin-1-yl)-5′-fluoro-6-methyl-6′-(2-methyl-2-phenylpropoxy)-[3,3′-bipyridine]-5-yl]acetic acid] showed a negative logarithm of the EC50 (pEC50) of 8.52. This pEC50 and that of the molecule before are within 0.2 log units of each other.

Regarding `Cc1nc(Nc2ccccn2)c(-c2ccc(OCCc3ccc(F)cc3)cc2)c(N2CCC(C)(C)CC2)c1[C@H](OC(C)(C)C)C(=O)O` [Example 63, (S)-2-(tert-Butoxy)-2-(4-(4,4-dimethylpiperidin-1-yl)-5-(4-(4-fluorophenethoxy)phenyl)-2-methyl-6-(pyridin-2-ylamino)pyridin-3-yl)acetic acid], the negative-log EC50 (pEC50) was 8.22.

For the molecule `CCCCCCOc1ccc(-c2cnc(C)c([C@H](OC(C)(C)C)C(=O)O)c2N2CCC(C)(C)CC2)nc1` [Example 334, (2S)-2-(tert-butoxy)-2-[4′-(4,4-dimethylpiperidin-1-yl)-5-(hexyloxy)-6′-methyl-[2,3′-bipyridine]-5′-yl]acetic acid], the pEC50 is 8.40. The pEC50 values of the last two molecules are within 0.2 log units of each other.

On to `CC1(C)CCN(c2c(-c3ccc(CNc4ncnc5c4oc4ccccc45)cc3)cnc(Cl)c2[C@H](OC(C)(C)C)C(=O)O)CC1` [Example 201, (S)-2-(5-(4-((Benzofuro[3,2-d]pyrimidin-4-ylamino)methyl)phenyl)-2-chloro-4-(4,4-dimethylpiperidin-1-yl)pyridin-3-yl)-2-(tert-butoxy)acetic acid], for which the pEC50 is 9.00.

Molecule `Cc1nc(OCC(C)C)c(Cl)cc1-c1cnc(C)c([C@H](OC(C)(C)C)C(=O)O)c1N1CCC(C)(C)CC1` [Example 425, (S)-2-(tert-Butoxy)-2-(5′-chloro-4-(4,4-dimethylpiperidin-1-yl)-6′-isobutoxy-2′,6-dimethyl-[3, 3′-bipyridin]-5-yl)acetic acid] showed a negative logarithm of the EC50 (pEC50) of 6.90.

Turning to `Cc1ncc(-c2ccc(OCCc3ccccc3F)c(F)c2)c(N2CCC(C)(C)CC2)c1[C@H](OC(C)(C)C)C(=O)O` [Example 128, (S)-2-(tert-Butoxy)-2-(4-(4,4-dimethylpiperidin-1-yl)-5-(3-fluoro-4-(2-fluorophenethoxy)phenyl)-2-methylpyridin-3-yl)acetic acid], the pEC50 is 8.70. Against the preceding molecule, the pEC50 is 1.80 log units higher.

The molecule `COc1c(F)cc(-c2c(CNCC3CCOCC3)nc(Cl)c([C@H](OC(C)(C)C)C(=O)O)c2N2CCC(C)(C)CC2)cc1F` [Example 203, (S)-2-(tert-Butoxy)-2-(2-chloro-5-(3,5-difluoro-4-methoxyphenyl)-4-(4,4-dimethylpiperidin-1-yl)-6-((((tetrahydro-2H-pyran-4-yl)methyl)amino)methyl)pyridin-3-yl)acetic acid] showed a pEC50 of 8.15.

Molecule `Cc1nc(NCCCN2CCOCC2)c(-c2ccc(OCCc3ccc(F)cc3)cc2)c(N2CCC(C)(C)CC2)c1[C@H](OC(C)(C)C)C(=O)O` [Example 34, (S)-2-(tert-Butoxy)-2-(4-(4,4-dimethylpiperidin-1-yl)-5-(4-(4-fluorophenethoxy)phenyl)-2-methyl-6-((3-morpholinopropyl)amino)pyridin-3-yl)acetic acid] showed a pEC50 of 9.15.

`Cc1nc(C(C)(C)O)c(-c2ccc(OCCc3ccc(F)cc3)c(F)c2)c(N2CCC(C)(C)CC2)c1[C@H](OC(C)(C)C)C(=O)O` (single isomer, unassigned) [Example 242] gave a pEC50 of 8.30.

As for `COc1ccc(-c2cnc(C)c([C@H](OC(C)(C)C)C(=O)O)c2N2CCC(C)(C)CC2)cc1F` [Example 179, (2S)-2-(tert-Butoxy)-2-[4-(4,4-dimethylpiperidin-1-yl)-5-(3-fluoro-4-methoxyphenyl)-2-methylpyridin-3-yl]acetic acid], the pEC50 was 8.30.
